Source: publication PMC12756723, “Derivatives of the Cashew Nut Shell Liquid as Ligands of Pseudomonas aeruginosa Phenazine Protein D (PaPhzD)” (ACS Omega, 2025)
“Also recorded” adds a separate entry of the source.

Legend:
[1] = tested on: P. aeruginosa cells (ATCC 27853); test: Screening of PYO production inhibitors (supernatant absorbance 691 nm); type: cell-based, Pseudomonas aeruginosa; details: 100 μM
Method: P. aeruginosa cells (ATCC 27853) were inoculated by depletion on King’s A agar, and the plates were incubated at 30 °C for 24 h. Isolated colonies were collected and resuspended in sterile saline solution (0.85%) until turbidity equivalent to optical density (OD) at 600 nm, equal to 0.3 (1.5 × 10^8 CFU/mL). This bacterial suspension was diluted 10-fold and used to inoculate King’s A broth.
(§1) The potential inhibitors, previously solubilized in DMSO, were added to the culture medium after the inoculation (final concentration = 100 μM). The control group was cultured in the presence of an equivalent volume of DMSO but without the presence of potential inhibitors. The cell suspension was maintained at 30 °C under constant agitation (180 rpm) for 24 h in a 24-well plate. After this period, the OD600 was measured to evaluate bacterial growth, and in parallel, after being subjected to centrifugation, the supernatant was read in a 96-well plate at a wavelength of 691 nm. The sterile medium used for culturing the microorganism was used as a positive control, and culture medium containing 1% DMSO was used as a negative control.

human PPAR isoforms = tested on: human PPAR isoforms; set-up: method as in Sahin et al. 2022 (likely, number not given); details: previously investigated; ref Sahin et al. 2022 (likely, number not given); cited from earlier work
PaPhzD-FITC = biological target: T1, PaPhzD-FITC (Pseudomonas aeruginosa, UniProt P0DPB9); test: Fluorescence binding assay with FITC-labeled PaPhzD; details: 0.32 μM FITC-labeled PaPhzD, 25 °C, 3-parameter fit; read-out: Kd
T1 construct: inferred from Ni-NTA purification with imidazole elution; made in house; host or cells: E. coli BL21(DE3)
T1 sequence (P0DPB9 whole entry): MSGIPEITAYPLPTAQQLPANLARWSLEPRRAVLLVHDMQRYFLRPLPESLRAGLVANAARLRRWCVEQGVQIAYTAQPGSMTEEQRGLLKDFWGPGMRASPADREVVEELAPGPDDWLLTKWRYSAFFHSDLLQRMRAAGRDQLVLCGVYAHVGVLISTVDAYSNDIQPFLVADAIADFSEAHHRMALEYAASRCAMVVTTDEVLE
Method: PaPhzD (2.1 mg/mL) was incubated with 6 mg/mL fluorescein isothiocyanate (FITC) (Sigma-Aldrich 46950) (1:1) for 2 h at 25 °C. Next, the reaction mixture was eluted on a Hi-Trap HP desalting column (GE Healthcare) with 2 CV of 50 mM HEPES buffer (pH 8.0). The collected fractions were quantified at two different wavelengths (280 and 495 nm), and the molar ratio (Abs495/Abs280) ranging from 0.3 to 1.0 was employed for K d calculation experiments.
Subsequently, the fluorescence intensity of 0.32 μM of FITC-labeled PaPhzD was measured on a real-time thermocycler (Applied Biosystems 7500) equipped with the filter FAN (excitation wavelength: 498 nm; emission wavelength: 530 nm) for 10 min in the presence of different concentrations of each LDT compound (ranging 0.7–100 μM), previously diluted in DMSO.
The fluorescence raw data were recorded using Applied Biosystems 7500 Software v2.0, then exported to GraphPad Prism version 9.0 software to build fluorescence intensity × concentration plots and calculate K d values of the ligands by the nonlinear regression method (3-parameter fit). All experiments were carried out in triplicate using a 96-well PCR plate, manually sealed with transparent capping strips (Flatcap strips, BioRadVR).

P. aeruginosa = test: Colony morphology in medium containing compounds; type: cell-based, Pseudomonas aeruginosa; details: data not shown
phzA1-G1 = test: lacZ transcriptional fusion, phzA1-G1 operon; type: cell-based, Pseudomonas aeruginosa; details: late exponential phase
Method: (§2) P. aeruginosa harbors two identically structured operons in its genome, which encode most of the enzymes responsible for PYO synthesis (phzA1-G1 and phzA2-G2) but have slightly different regulatory regions 1. lacZ transcriptional fusions for each operon were assayed at mid-log and late exponential phases (OD=1 and 3, respectively). At mid-log cultures, the expression of both QS-regulated operons is extremely low, and it increases more than 1000-fold at late exponential phase for phzA1-G1 and 4-fold for phzA2-G2, as expected. Addition of compounds 2 and 4 had no effect for both operons in the late […]
(§3) synthesis is not related to inhibition at the transcriptional level.
(§4) Figure 7S: Effect of LDT10 (2) and LDT13 (3) on the phzA1-G1 (A) and phzA2-G2 […]
(§5) (1 picture or pasted object on this page, not shown here)

[2] = tested on: P. aeruginosa cells (ATCC 27853); test: Bacterial growth (OD600) in the PYO screening culture; type: cell-based, Pseudomonas aeruginosa; details: 100 μM
Method: as §1

phzA2-G2 = test: lacZ transcriptional fusion, phzA2-G2 operon; type: cell-based, Pseudomonas aeruginosa; details: late exponential phase
Method: as §2, §3, §4, §5

PaPhzD = biological target: T2, PaPhzD (Pseudomonas aeruginosa, UniProt P0DPB9); test: Thermal shift assay (TSA) with SYPRO Orange; type: binding
T2 construct: inferred from Ni-NTA purification with imidazole elution; made in house; host or cells: E. coli BL21(DE3)
T2 sequence (P0DPB9 whole entry): as above
Method: Thermal shift assays were performed on an Applied Biosystems 7500 RT-PCR (Applied Biosystems, Foster City, CA USA). All experiments were carried out in triplicate with 1 °C per minute increments in temperatures that range from 25 to 85 °C in 96-well PCR plates (PCR plates 96-well, BioRad), sealed with transparent capping strips (Flatcap strips, BioRad). The fluorescence of SYPRO Orange (Invitrogen S6650) was monitored (excitation wavelength, 492 nm; emission wavelength, 610 nm). Before the compounds’ screening, protein and DMSO concentrations were evaluated to improve PaPhzD stability throughout the assay.
The protein concentration required for an optimal signal-to-noise ratio (>5-fold) was evaluated by analysis of the raw fluorescence curves at different PaPhzD concentrations (1–5 μM). Then, the effect of DMSO (0–10%) over PaPhzD T m was evaluated at the optimal protein concentration. Fluorescence raw data were recorded using Applied Biosystems 7500 Software v2.0 and then processed with NAMI software to calculate T m values by the first-derivative method.
LDT compounds were screened at a final concentration of 50 μM. Briefly, 1 μL of each compound (1 mM DMSO stock solution) was added to a mixed solution containing 5 μM PaPhzD diluted in 50 mM Tris–HCl buffer (pH 8.0) containing 100 mM NaCl, 1 mM DTT, and SYPRO Orange dye (Invitrogen S6650) (1:100 dilution). Each compound was assayed in triplicate, and ΔT m values were calculated by comparison to reference wells that had 1 μL DMSO instead of the LDT compounds. Differences between T m values (ΔT m) were considered statistically significant when p < 0.01, according to the one-way ANOVA followed by Dunnett’s post-test for multiple comparisons, available in GraphPad Prism 9.0 software (GraphPad Software, San Diego, CA, USA, www.graphpad.com).
Compounds with ΔT m values statistically different from the reference were also assayed at different concentrations (ranging from 6.25 to 100 μM) to evaluate the concentration–response behavior. The ΔT m versus concentration plots were generated using the nonlinear regression method available in GraphPad Prism version 9.0.

For `CCCCCCCCCCCCCCCc1cccc(O)c1` [Compound 2], the “Pyocyanin production, Cohen's d vs control” value ([1]; 24 h, 30 °C) is given as −2.56, the “Effect on pyocyanin production” value ([1]; vs DMSO control) is given as “decreased pyocyanin production” and the PPAR activity profile (human PPAR isoforms) is given as “do not activate PPAR receptors”. For the same compound, the Kd (PaPhzD-FITC) was 2800 nM, the “Effect on colony morphology” value (P. aeruginosa) was “No effects on colony morphology” and the “Effect on phzA1-G1 transcription” value (phzA1-G1) was “no effect”. The “Effect on bacterial growth” value [2] was “without affecting bacterial growth; also recorded: no significant effect on bacterial growth”, the “Effect on phzA2-G2 transcription” value (phzA2-G2) was “no effect” and the “ΔTm of PaPhzD” value (PaPhzD; 50 μM compound, 5 μM PaPhzD, vs DMSO reference) was −3.8 °C. For the same compound, the “Concentration–response behavior of ΔTm” value (PaPhzD; 6.25 to 100 μM) was “clear concentration–response behavior”.
